Data on twelve molecules can be found in ChEMBL document CHEMBL4138154, “Conformationally rigid derivatives of WAY-267,464: Synthesis and pharmacology at the human oxytocin and vasopressin-1a receptors” (Eur J Med Chem, 2018).

Assay [1] concerns the target T1, Vasopressin V1a receptor (Homo sapiens, UniProt P37288). As to the kind of experiment: Agonist activity at human vasopressin V1a receptor expressed in HEK293 cells assessed as induction of IP1 accumulation after 1 hr by HTRF assay. In kind it is functional, cell-based.
The target of assay [2] is T2, Oxytocin receptor (Homo sapiens, UniProt P30559).
T2 sequence (P30559 whole entry): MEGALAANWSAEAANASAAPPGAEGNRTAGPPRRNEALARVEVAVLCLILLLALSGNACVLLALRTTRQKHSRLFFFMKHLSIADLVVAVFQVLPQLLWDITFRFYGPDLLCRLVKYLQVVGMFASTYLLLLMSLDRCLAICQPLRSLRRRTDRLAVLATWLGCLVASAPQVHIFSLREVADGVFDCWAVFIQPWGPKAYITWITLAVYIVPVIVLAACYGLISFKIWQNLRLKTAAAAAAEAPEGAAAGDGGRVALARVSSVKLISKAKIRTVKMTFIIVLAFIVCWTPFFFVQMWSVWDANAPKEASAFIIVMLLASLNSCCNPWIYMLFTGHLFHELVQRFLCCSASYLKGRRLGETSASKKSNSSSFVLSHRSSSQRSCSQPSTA
As to the kind of experiment: Displacement of [3H]-oxytocin from human OTR expressed in HEK293 cell membranes after 90 mins by radioligand binding assay.

Assay [3] has as its target T1, Vasopressin V1a receptor. As to the kind of experiment: Antagonist activity at human vasopressin V1a receptor expressed in HEK293 cells assessed as inhibition of vasopressin-induced IP1 accumulation preincubated for 30 mins followed by vasopressin addition measured after 1 hr by HTRF assay. Format: functional, cell-based. A general note: In TR-FRET formats the signal depends on donor and acceptor labels being close together.

The target in assay [4] is T2, Oxytocin receptor. As to the kind of experiment: Agonist activity at human OTR expressed in HEK293 cells assessed as induction of IP1 accumulation after 1 hr by HTRF assay. In kind it is functional, cell-based.
Assay [5] concerns the target T1, Vasopressin V1a receptor. As to the kind of experiment: Displacement of [3H]-vasopressin from human vasopressin V1a receptor expressed in HEK293 cell membranes after 90 mins by radioligand binding assay. On the technique in general: Loss of bound radioactivity is the signal in a displacement assay; it reports binding, not function.
Assay [6] addresses T2, Oxytocin receptor. The experiment in a line: Antagonist activity at human OTR expressed in HEK293 cells assessed as inhibition of agonist-induced IP1 accumulation preincubated for 30 mins followed by agonist addition measured after 1 hr by HTRF assay. In kind it is functional, cell-based.

Molecules are shown by their SMILES.

T1 sequence (P37288 whole entry): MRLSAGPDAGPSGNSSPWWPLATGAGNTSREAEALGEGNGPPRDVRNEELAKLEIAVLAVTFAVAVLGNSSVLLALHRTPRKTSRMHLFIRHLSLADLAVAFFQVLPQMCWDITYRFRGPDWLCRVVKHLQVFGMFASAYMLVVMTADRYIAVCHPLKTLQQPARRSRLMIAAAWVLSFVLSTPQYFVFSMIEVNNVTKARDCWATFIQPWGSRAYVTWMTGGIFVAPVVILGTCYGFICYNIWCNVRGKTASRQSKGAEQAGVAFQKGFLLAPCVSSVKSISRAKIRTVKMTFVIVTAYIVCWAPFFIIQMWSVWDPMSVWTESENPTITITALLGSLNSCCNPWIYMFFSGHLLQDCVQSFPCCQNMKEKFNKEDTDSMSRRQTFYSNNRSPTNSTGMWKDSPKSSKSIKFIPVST

As for `COc1cc(CN2CCN(c3ccccc3CC(=O)N3Cc4cnn(C)c4Nc4ccccc43)CC2)cc(OC)c1`, the EC50 at Vasopressin V1a receptor [1] and on Oxytocin receptor [4] was greater than 10 µM throughout. In addition, the Ki on Oxytocin receptor [2] is greater than 10 µM; at Vasopressin V1a receptor [5] it was 6.81 µM. The concentration for half-maximal inhibition (IC50) at Vasopressin V1a receptor [3] and on Oxytocin receptor [6] was greater than 10 µM in each case.
In the case of `Cn1ncc2c1Nc1ccccc1N(C(=O)CCc1ccccc1N1CCN(Cc3cc(O)cc(O)c3)CC1)C2`, the EC50 on Vasopressin V1a receptor [1] and on Oxytocin receptor [4] was greater than 10 µM in each case. Moreover, the inhibition constant Ki on Oxytocin receptor [2] is greater than 10 µM; at Vasopressin V1a receptor [5], 0.251 µM. Moreover, the half-maximal inhibitory concentration (IC50) on Vasopressin V1a receptor [3] and at Oxytocin receptor [6] was greater than 10 µM each time.
In the case of `Cn1ncc2c1Nc1ccccc1N(C(=O)Cc1ccccc1N1CCN(Cc3cc(O)cc(O)c3)CC1)C2`, the 50% effective concentration (EC50) at Vasopressin V1a receptor [1] and at Oxytocin receptor [4] was greater than 10 µM in each case. Moreover, the figures for the inhibition constant (Ki) on Oxytocin receptor [2] and at Vasopressin V1a receptor [5] were greater than 10 µM and 1.94 µM, respectively. For the same molecule, the half-maximal inhibitory concentration (IC50) on Vasopressin V1a receptor [3] and on Oxytocin receptor [6] was greater than 10 µM in each case.
For `COc1cc(CN2CCN(c3ccccc3CCC(=O)N3Cc4cnn(C)c4Nc4ccccc43)CC2)cc(OC)c1`, the EC50 at Vasopressin V1a receptor [1] and at Oxytocin receptor [4] was greater than 10 µM each time. Further, the Ki is greater than 10 µM at Oxytocin receptor [2] and 1.06 µM on Vasopressin V1a receptor [5]. For the same molecule, the IC50 on Vasopressin V1a receptor [3] and on Oxytocin receptor [6] was greater than 10 µM each time.
`COc1cc(CN2CCN(c3cccc(CCC(=O)N4Cc5cnn(C)c5Nc5ccccc54)c3)CC2)cc(OC)c1`: the EC50 at Vasopressin V1a receptor [1] and on Oxytocin receptor [4] was greater than 10 µM each time. Besides, the figures for the Ki on Oxytocin receptor [2] and on Vasopressin V1a receptor [5] were greater than 10 µM and 3.34 µM, respectively. The IC50 at Vasopressin V1a receptor [3] and at Oxytocin receptor [6] was greater than 10 µM in each case.
As to `COc1cc(CN2CCN(c3ccc(CC(=O)N4Cc5cnn(C)c5Nc5ccccc54)cc3)CC2)cc(OC)c1`, the EC50 at Vasopressin V1a receptor [1] and at Oxytocin receptor [4] was greater than 10 µM throughout. Further, the results for the inhibition constant Ki on Oxytocin receptor [2] and on Vasopressin V1a receptor [5] were greater than 10 µM and 1.91 µM, respectively. Also, the IC50 on Vasopressin V1a receptor [3] and at Oxytocin receptor [6] was greater than 10 µM throughout.
For `Cn1ncc2c1Nc1ccccc1N(C(=O)Cc1ccc(N3CCN(Cc4cc(O)cc(O)c4)CC3)cc1)C2`, the concentration for a half-maximal effect (EC50) on Vasopressin V1a receptor [1] and on Oxytocin receptor [4] was greater than 10 µM throughout. The Ki on Oxytocin receptor [2] was greater than 10 µM; at Vasopressin V1a receptor [5] it was 0.795 µM. For the same molecule, the IC50 at Vasopressin V1a receptor [3] and at Oxytocin receptor [6] was greater than 10 µM in each case.
As to `Cn1ncc2c1Nc1ccccc1N(C(=O)CCc1ccc(N3CCN(Cc4cc(O)cc(O)c4)CC3)cc1)C2`, the EC50 on Vasopressin V1a receptor [1] and on Oxytocin receptor [4] was greater than 10 µM in each case. The Ki on Oxytocin receptor [2] was greater than 10 µM; at Vasopressin V1a receptor [5] it was 1.76 µM. Moreover, the 50% inhibitory concentration (IC50) at Vasopressin V1a receptor [3] and on Oxytocin receptor [6] was greater than 10 µM throughout.
`COc1cc(CN2CCN(c3cccc(CC(=O)N4Cc5cnn(C)c5Nc5ccccc54)c3)CC2)cc(OC)c1`: the EC50 on Vasopressin V1a receptor [1] and at Oxytocin receptor [4] was greater than 10 µM each time. The results for the Ki on Oxytocin receptor [2] and at Vasopressin V1a receptor [5] were greater than 10 µM and 2.1 µM, respectively. The IC50 at Vasopressin V1a receptor [3] and on Oxytocin receptor [6] was greater than 10 µM each time.
`Cn1ncc2c1Nc1ccccc1N(C(=O)Cc1cccc(N3CCN(Cc4cc(O)cc(O)c4)CC3)c1)C2`: the EC50 on Vasopressin V1a receptor [1] and at Oxytocin receptor [4] was greater than 10 µM each time. Further, the Ki is greater than 10 µM on Oxytocin receptor [2] and 0.643 µM on Vasopressin V1a receptor [5]. For the same molecule, the IC50 at Vasopressin V1a receptor [3] and at Oxytocin receptor [6] was greater than 10 µM each time.
Regarding `COc1cc(CN2CCN(c3ccc(CCC(=O)N4Cc5cnn(C)c5Nc5ccccc54)cc3)CC2)cc(OC)c1`, the EC50 on Vasopressin V1a receptor [1] and on Oxytocin receptor [4] was greater than 10 µM each time. For the same molecule, the inhibition constant Ki was greater than 10 µM on Oxytocin receptor [2] and 6.25 µM on Vasopressin V1a receptor [5]. Moreover, the IC50 at Vasopressin V1a receptor [3] and at Oxytocin receptor [6] was greater than 10 µM in each case.
`Cn1ncc2c1Nc1ccccc1N(C(=O)CCc1cccc(N3CCN(Cc4cc(O)cc(O)c4)CC3)c1)C2`: the 50% effective concentration (EC50) at Vasopressin V1a receptor [1] and on Oxytocin receptor [4] was greater than 10 µM each time. Besides, the inhibitory constant (Ki) on Oxytocin receptor [2] was greater than 10 µM; at Vasopressin V1a receptor [5] it was 0.874 µM. Further, the IC50 on Vasopressin V1a receptor [3] and at Oxytocin receptor [6] was greater than 10 µM in each case.

As a reminder, the EC50 is the concentration giving half of the maximal effect. As usually defined, the Ki is a dissociation constant, usually derived from enzyme kinetics or from competition with a known ligand. A low value points to tighter binding. As a reminder, the IC50 is the concentration that gives 50% inhibition.
